These results are taken from PubChem BioAssay (NCI).

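Protocol summary: plate cells (96-well), add compound at 5 concentrations, incubate 48 h, interpolate endpoints linearly. At the GI50, growth is halved. TGI denotes the concentration required for complete inhibition of growth.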

Among the test systems are A498 renal; ACHN renal; HCC-2998 colon; M14 melanoma; MDA-MB-435; NCI-H460 lung; SF-268 CNS; SN12C renal; SNB-19 CNS; MDA-MB-231 breast.
What all share (assay): inhibition of tumour cell growth, NCI panel, 48 h

`COc1ccc(/C=C/c2ccnc3ccccc23)cc1`: the TGI with A498 renal is 27.9 µM; in the experiment with ACHN renal, 27 µM; with HCC-2998 colon, 36.6 µM; in the experiment on M14 melanoma, 31.7 µM; in the experiment on MDA-MB-435 it was 31.2 µM; with NCI-H460 lung, 47.7 µM. For the same molecule, the values for the TGI in the experiment with SF-268 CNS, in the experiment on SN12C renal and in the experiment on SNB-19 CNS were 30.4 µM, 32.7 µM and 36.8 µM, respectively.
For the molecule `CC(C)(C)C1CCP(=O)(c2ccccc2)CC1` (stereo unspecified), the TGI in the experiment with A498 renal, with ACHN renal, in the experiment on HCC-2998 colon, with M14 melanoma, with NCI-H460 lung and in the experiment on SN12C renal was greater than 100 µM each time. The TGI in the experiment with SNB-19 CNS was greater than 100 µM.
`Cc1ccc(C)c(NC(=O)C(=O)CC(=O)c2cccc3ccccc23)c1`: the TGI with A498 renal, in the experiment with ACHN renal, in the experiment with HCC-2998 colon, with M14 melanoma, with NCI-H460 lung and in the experiment with SF-268 CNS was greater than 100 µM each time. Moreover, the TGI in the experiment on SN12C renal and in the experiment on SNB-19 CNS was greater than 100 µM in each case.
For the molecule `Cc1cn(C2CC(N=[N+]=[N-])C(CO)O2)c(=O)[nH]c1=O` (stereo unspecified), the GI50 in the experiment on ACHN renal, in the experiment on HCC-2998 colon, in the experiment on M14 melanoma, in the experiment with MDA-MB-231 breast and in the experiment on SN12C renal was greater than 1000 µM throughout. The TGI with ACHN renal, in the experiment on HCC-2998 colon, with M14 melanoma, in the experiment on MDA-MB-231 breast, in the experiment with MDA-MB-435 and with SN12C renal was greater than 1000 µM throughout.
For the molecule `C=C(CS(=O)(=O)c1ccccc1)C(=O)OCC`, the TGI was 29.5 µM in the experiment on ACHN renal; 35.1 µM in the experiment with HCC-2998 colon; 24.2 µM with M14 melanoma; 35.4 µM with NCI-H460 lung; 40 µM with SF-268 CNS; 31.1 µM in the experiment on SN12C renal. For the same molecule, in the experiment with SNB-19 CNS, the TGI is 37.9 µM.
Turning to `CN(C(=O)C12C3C4C1C1C2C3C41C(=O)N(C)C(C)(C)C)C(C)(C)C` (stereo unspecified), the TGI in the experiment on A498 renal, in the experiment on ACHN renal, in the experiment with HCC-2998 colon, in the experiment with M14 melanoma, with SF-268 CNS and with SN12C renal was greater than 50 µM each time. In addition, in the experiment on SNB-19 CNS, the TGI is greater than 50 µM.
Take `NC(=O)c1ccccc1NC(=O)C(=O)Nc1n[nH]c(N)n1`: the TGI in the experiment on A498 renal, with ACHN renal, in the experiment with HCC-2998 colon, in the experiment on M14 melanoma, with NCI-H460 lung and with SN12C renal was greater than 100 µM throughout. For the same molecule, the TGI in the experiment on SNB-19 CNS is greater than 100 µM.
Consider `Cc1ccc(S(=O)(=O)Nc2cccc(C)c2C)cc1`, for which the TGI in the experiment with A498 renal, in the experiment with HCC-2998 colon, in the experiment on M14 melanoma, in the experiment with NCI-H460 lung, in the experiment on SF-268 CNS and with SN12C renal was greater than 100 µM throughout. Further, the TGI in the experiment with SNB-19 CNS is greater than 100 µM.
Consider `O=S1c2ccccc2N=C(c2ccc3ccccc3c2)CC1c1ccccc1F` (stereo unspecified), for which the TGI in the experiment with A498 renal was 79.7 µM; in the experiment on ACHN renal, greater than 100 µM; in the experiment on HCC-2998 colon, greater than 100 µM; in the experiment on M14 melanoma, greater than 100 µM; with NCI-H460 lung, greater than 100 µM; in the experiment on SF-268 CNS it was greater than 100 µM. The TGI with SN12C renal and in the experiment with SNB-19 CNS was greater than 100 µM in each case.
For the molecule `COc1cc(-c2ccccc2)c(OC)cc1CCl`, the TGI with A498 renal, in the experiment with ACHN renal, in the experiment on HCC-2998 colon, in the experiment on M14 melanoma, in the experiment on NCI-H460 lung and in the experiment on SF-268 CNS was greater than 100 µM each time. The TGI with SN12C renal and in the experiment on SNB-19 CNS was greater than 100 µM each time.
On to `Cc1nn2c(=O)n(-c3cccc(-n4nnc5c(-c6ccccc6)c(C)nn5c4=O)c3C)nnc2c1-c1ccccc1`, for which the TGI with A498 renal was greater than 100 µM; with ACHN renal it was 76.7 µM; in the experiment on HCC-2998 colon, 55.8 µM; with M14 melanoma, 29.6 µM; with NCI-H460 lung, 50.1 µM; in the experiment with SF-268 CNS it was greater than 100 µM. The TGI in the experiment on SN12C renal is 36.5 µM; in the experiment on SNB-19 CNS, greater than 100 µM.
For the molecule `COC(=O)[C@H]1CC(=O)C=C2CCCC21` (stereo partly specified), the TGI in the experiment on A498 renal, with HCC-2998 colon, with M14 melanoma, in the experiment with NCI-H460 lung, with SF-268 CNS and with SN12C renal was greater than 100 µM throughout. Moreover, the TGI in the experiment with SNB-19 CNS is greater than 100 µM.
In the case of `CN=c1ss/c(=N\C(=S)N(C)C)n1C1CCCCC1`, the TGI in the experiment with A498 renal is greater than 31.6 µM; in the experiment with ACHN renal, greater than 31.6 µM; in the experiment with HCC-2998 colon, greater than 31.6 µM; with M14 melanoma, greater than 10 µM; with NCI-H460 lung, greater than 31.6 µM; with SF-268 CNS, greater than 31.6 µM. Further, the TGI in the experiment with SN12C renal and in the experiment with SNB-19 CNS was greater than 31.6 µM in each case.
For the molecule `CC1=C(C(=O)Nc2cccc(C(F)(F)F)c2)C(c2ccccc2F)C(C(=O)Nc2cccc(C(F)(F)F)c2)=C(C)N1`, the TGI was found to be 24.3 µM with A498 renal; 19 µM in the experiment on ACHN renal; 7.67 µM in the experiment on HCC-2998 colon; 15.7 µM in the experiment with M14 melanoma; 21.8 µM with NCI-H460 lung; 23.9 µM with SN12C renal. For the same molecule, the TGI in the experiment on SNB-19 CNS amounted to 25.8 µM.
As for `O=c1c2cc(Br)ccc2[nH]c(=S)n1-c1ccccc1`, the TGI with A498 renal, with ACHN renal, with HCC-2998 colon, in the experiment on M14 melanoma, with NCI-H460 lung and with SF-268 CNS was greater than 100 µM throughout. Also, the TGI in the experiment on SN12C renal and in the experiment with SNB-19 CNS was greater than 100 µM throughout.
Consider `CC(C)(C)C1CCC(CI)(N=[N+]=[N-])CC1` (stereo unspecified), for which the TGI in the experiment on A498 renal, in the experiment with ACHN renal, with HCC-2998 colon, in the experiment with M14 melanoma, in the experiment with NCI-H460 lung and in the experiment with SF-268 CNS was greater than 100 µM each time. Further, the TGI in the experiment with SN12C renal and with SNB-19 CNS was greater than 100 µM throughout.
For the molecule `S=C(Nc1ccc(Cl)cc1)SC1CCCCC1`, the TGI with ACHN renal was 36.6 µM; in the experiment on HCC-2998 colon it was 39.3 µM; with M14 melanoma, 42.7 µM; in the experiment on MDA-MB-231 breast it was greater than 100 µM; with MDA-MB-435 it was greater than 100 µM; in the experiment on NCI-H460 lung, 86.7 µM. The TGI with SF-268 CNS was 84.9 µM; with SN12C renal, 51.3 µM; in the experiment on SNB-19 CNS, 53.6 µM.
`COc1cc(-c2nccc3[nH]c(-c4cccc5[nH]ccc45)nc23)cc(OC)c1OC`: the GI50 in the experiment on ACHN renal, with HCC-2998 colon, with M14 melanoma, in the experiment on MDA-MB-231 breast, in the experiment on MDA-MB-435 and in the experiment with NCI-H460 lung was less than 0.01 µM in each case. The GI50 in the experiment with SF-268 CNS, in the experiment with SN12C renal and with SNB-19 CNS was less than 0.01 µM throughout. Also, the TGI in the experiment with ACHN renal was 11.6 µM; with HCC-2998 colon, 2.28 µM; with M14 melanoma, 10.1 µM; with MDA-MB-231 breast it was 17.1 µM; in the experiment on MDA-MB-435 it was less than 0.01 µM; in the experiment on NCI-H460 lung, 1.11 µM. Moreover, the TGI in the experiment with SF-268 CNS stood at 16 µM; in the experiment on SN12C renal it was 18.1 µM; in the experiment on SNB-19 CNS it was 20.6 µM.
On to `COc1cccc(C(C#N)NC23CC4CC(CC(C4)C2)C3)c1` (stereo unspecified), for which the TGI with ACHN renal, in the experiment with HCC-2998 colon, in the experiment on M14 melanoma, in the experiment on MDA-MB-231 breast, in the experiment with MDA-MB-435 and with NCI-H460 lung was greater than 100 µM in each case. The TGI with SF-268 CNS, in the experiment with SN12C renal and in the experiment with SNB-19 CNS was greater than 100 µM throughout.
As for `CC1(C)C(=O)CCC(=O)C(C)(C)C2=CC=C(O2)C(C)(C)C(=O)CCC(=O)C(C)(C)C2=CC=C1O2`, the TGI with A498 renal, with ACHN renal, in the experiment with HCC-2998 colon, in the experiment with NCI-H460 lung, with SF-268 CNS and with SNB-19 CNS was greater than 100 µM in each case.
In the case of `CC(N)CN.CC(N)CN.[Cl-].[O]=[Os+2]=[O]` (stereo unspecified), the GI50 in the experiment with HCC-2998 colon was greater than 100 µM; with M14 melanoma it was greater than 100 µM; in the experiment with NCI-H460 lung, greater than 100 µM; in the experiment on SF-268 CNS, 77.3 µM; in the experiment on SN12C renal, greater than 100 µM; in the experiment with SNB-19 CNS it was greater than 100 µM. Further, the TGI in the experiment with HCC-2998 colon, in the experiment with M14 melanoma, in the experiment with NCI-H460 lung, in the experiment on SF-268 CNS, with SN12C renal and with SNB-19 CNS was greater than 100 µM each time.
As for `COc1ccc(/C=c2\sc3nnc(CCC(=O)Nc4cccc(C(F)(F)F)c4)n3c2=O)cc1`, the TGI in the experiment with A498 renal, with ACHN renal, in the experiment with HCC-2998 colon, in the experiment on M14 melanoma, in the experiment on NCI-H460 lung and in the experiment with SF-268 CNS was greater than 100 µM throughout. Moreover, the TGI in the experiment with SN12C renal and in the experiment on SNB-19 CNS was greater than 100 µM each time.
For `COC(=O)CSc1n[nH]c(-c2ccccc2)n1`, the TGI with A498 renal, with ACHN renal, with M14 melanoma, with NCI-H460 lung, in the experiment with SF-268 CNS and in the experiment with SN12C renal was greater than 100 µM each time. The molecule further gave a TGI in the experiment on SNB-19 CNS greater than 100 µM.
Regarding `CN(C)CCCNC(=O)c1cccc2nc3ccccc3nc12`, the TGI with A498 renal is 39.6 µM; in the experiment on ACHN renal, greater than 100 µM; with HCC-2998 colon, 50.4 µM; with M14 melanoma, greater than 53.3 µM; with SF-268 CNS it was 39.9 µM; with SN12C renal it was greater than 100 µM. Besides, the TGI in the experiment with SNB-19 CNS is greater than 100 µM.
